The structures appear in SMILES notation. pIC50: −log10 of the molar value. Values after ≈ are worked out from the molar mass of the structure shown. Like-named read-outs stand apart in the source and are kept apart here.

The test system of data set [1] is HT-29 cells. Put plainly: CellTiter-Glo assay, HT-29. It counts as cell-based. The settings on record: Homo sapiens; HT-29 Colon, 72 hr; read-out: IC50 (50% Inhibition of Proliferation). The method, then: (§1) MDA-MB-231, HT-29, NCI-H460, NCI-H522, NCI-H69, GXF-209, HepG2, OVAR-3, PANC-1, DU-145, LNCAP, HL-60, K-562, and MOLT-4 cell lines were either obtained from the American Type Culture Collection (ATCC; Manassas, Va.), or from the National Cancer Institute (NCI; Frederick, Md.). RPMI-1640 media, L-glutamine dipeptide (HyQ SG-200), and HEPES were obtained from Hyclone (Logan, Utah).
(§2) All cell lines were routinely cultured twice weekly in RPMI-1640 medium supplemented with 2 mM L-glutamine dipeptide, 10 mM HEPES, and 10% FBS.
(§3) The adherent cell lines MDA-MB-231, HT-29, NCI-H460, NCI-H522, GXF-209, HepG2, OVAR-3, PANC-1, DU-145, and LNCAP cells were each seeded into two 96-well plates at 2,500 cells per well in a total volume of 50 uL and incubated in a 37° C. humidified 5% CO2 cell culture incubator overnight. The suspension cell lines NCI-H69, HL-60, K-562, and MOLT-4 were each seeded into two 96-well plates at 10,000 cell per well in a total volume of 50 uL and incubated in a 37° C. humidified 5% CO2 incubator overnight.
(§4) This was followed by making 2× stocks of the final concentrations required in RPMI-1640 medium. […]
(§5) Briefly, plates were removed from the incubator and placed on the bench at room temperatures for 30 minutes. […] Luminescence was then recorded using the PerkinElmer Microbeta scintillation and luminescence counter (Trilux).
(In general: Cellular ATP, detected with luciferase, serves as a proxy for viable cell number.)

Data set [2] has as its system T. rubrum. Kind of data set: Antifungal susceptibility testing (broth dilution), T. rubrum. It counts as cell-based, Trichophyton rubrum. The settings on record: for MIC: Trichophyton rubrum, read-out: minimum inhibitory concentration (MIC); for minimum inhibitory concentration (MIC): isolate 07-2055. On the procedure:
(§6) Anti-fungal testing was completed with a common lot for compounds 100 and 102.
(§7) A 10 mg portion of each powder was weighed out and added to 1 ml of sterile distilled water for compound 100 and DMSO for compound 102. The resulting concentration of […] was diluted to a working concentration of 640 μg/ml for each compound. All subsequent dilutions were also made using the respective diluents. Final testing concentrations ranged from 0.125-64 μg/ml.
(§8) A total of 23 isolates were tested to include 3 Candida albicans, 3 Candida glabrata, 3 Cryptococcus neoformans, 3 Aspergillus fumigatus, 3 Rhizopus oryzae, 3, Fusarium solani, 3 Pseudallescheria boydii, and 2 […] rubrum. All isolates were clinical isolates submitted to the Fungus Testing Laboratory for evaluation. Antifungal susceptibility testing was accomplished according to the methods outlined in the National Committee for Clinical Laboratory Standards, M-27A2, Reference Method for Broth Dilution Antifungal Susceptibility Testing of Yeasts; Approved Standard, and M38-A “Reference Method for Broth Dilution Antifungal Susceptibility Testing of Conidium-Forming Filamentous Fungi; Approved Standard”. This includes testing in RPMI-1640 with glutamine and without bicarbonate, an inoculum size of 0.5-2.5×10^3 for yeasts or 1-5×10^4 for moulds, and incubation at 35° C. for 24 and 48 hours.
For orientation: In broth dilution the organism is exposed to a series of concentrations in liquid medium.

Data set [3] has as its system C. albicans. Kind of data set: Antifungal susceptibility testing (broth dilution), C. albicans. The class given is cell-based, Candida albicans. The settings on record: for MIC: Candida albicans, read-out: minimum inhibitory concentration (MIC). On the procedure:
as §6, §7, §8

In data set [4] the test system is A. fumigatus. Kind of data set: Antifungal susceptibility testing (broth dilution), A. fumigatus. It counts as cell-based, Aspergillus fumigatus. The settings on record: for MIC: Aspergillus fumigatus, read-out: minimum inhibitory concentration (MIC). The method, then: as §6, §7, §8
The subject of data set [5] is HepG2 cells. Kind of data set: CellTiter-Glo assay, HepG2. The class given is cell-based. To be noted: Homo sapiens; HepG2 Liver, 72 hr; read-out: IC50 (50% Inhibition of Proliferation). On the procedure:
as §1, §2, §3, §4, §5

Data set [6] relates to CP Control. Put plainly: Antifungal susceptibility testing (broth dilution), CP Control. To be noted: read-out: minimum inhibitory concentration (MIC). It counts as cell-based. The method, then: as §6, §7, §8
Data set [7] deals with Fourteen Human Cancer Cell Lines. Kind of data set: CellTiter-Glo assay, panel of fourteen human cancer cell lines. The class given is cell-based. The settings on record: compared with positive comparator doxorubicin. On the procedure: as §1, §2, §3, §4, §5
Data set [8] has as its system GBM cell line U373. Put plainly: cells. It counts as cell-based, human. To be noted: for Percent of Control, Observed: U373 (Table 4). On the procedure:
To observe the effects Compound 100 in combination with retinoic acids, Compound 100 was combined with all-trans retinoic acid. […] The total number of cells is counted in the triplicate cultures at each dose and in controls after 7 days and the average number of cells and the standard deviation is determined.
The amount of inhibition of GBM cell growth is expressed as the proportion of the number of cells in the experimental dishes compared to the number of cells in control dishes containing only the drug vehicle and culture medium. The average percent of control is plotted and bracketed by one standard deviation calculated from the triplicate measurements.
Synergism (potentiation) of the inhibitory activity of two drugs in combination is said to be present when the percent survival in the presence of two drugs is less than the product of the percent survivals of the two drugs used alone at the same doses in the combination.

Data set [9] has as its system GBM cell line U87. Kind of data set: U87 xenograft tumor growth in SCID mice. It counts as in vivo. The settings on record: subcutaneous in SCID mice, ip daily for 20 days (FIG. 17). On the procedure: For in vivo experiments, subcutaneously implanted tumor cells are allowed to grow over 7 days to a size of 5-7 mm. On day 7, drug administration is begun ip daily for 20 days. The maximum perpendicular diameters of the tumor masses are measured every 2 to 5 days. On the 21st day after initiation of treatment, the animals are sacrificed and dissected free of the subcutaneous tissues and measured.

Data set [10] in a line: Stability at acid pH. The class given is physicochemical.

For the molecule `CC(C)(C)OC(=O)N1CCN(C(=O)C2C(C(=O)O)[C@H]3CC[C@@H]2O3)CC1` (stereo in doubt) [Compound 102, 4-(3-Carboxy-7oxa-bicyclo[2.2.1]heptane-2-carbonyl)piperazine-1-carboxylic acid tert-butyl ester], the pIC50 in [1] is 5.44; in data set [5], 4.66. Moreover, the MIC in [2] (isolate 07-1743, 24 Hours) was 2 µg/mL (≈ 5.64 µM); in data set [2] (isolate 07-1743, 48 Hours), 2 µg/mL (≈ 5.64 µM); in data set [3] (isolate 07-3012, 24 Hours) it was more than 64 µg/mL; in data set [3] (isolate 07-3012, 48 Hours) it was more than 64 µg/mL; in [4] (isolate 05-388, 24 Hours), more than 64 µg/mL; in data set [4] (isolate 05-388, 48 Hours) it was more than 64 µg/mL. For the same molecule, the MIC in data set [6] (24 Hours) and in [6] (48 Hours) was more than 64 µg/mL each time. For the same molecule, the “minimum inhibitory concentration (MIC)” value is 2 µg/mL (≈ 5.64 µM) in data set [2] (24 Hours); 2 µg/mL (≈ 5.64 µM) in data set [2] (48 Hours); more than 64 µg/mL in data set [3] (isolate 07-3006, 24 Hours); more than 64 µg/mL in data set [3] (isolate 07-3006, 48 Hours); more than 64 µg/mL in data set [3] (isolate 07-3011, 24 Hours); more than 64 µg/mL in data set [3] (isolate 07-3011, 48 Hours). Moreover, the “minimum inhibitory concentration (MIC)” value was more than 64 µg/mL in data set [4] (isolate 06-4126, 24 Hours); more than 64 µg/mL in [4] (isolate 06-4126, 48 Hours); more than 64 µg/mL in data set [4] (isolate 07-2039, 24 Hours); more than 64 µg/mL in data set [4] (isolate 07-2039, 48 Hours). Besides, the “Antifungal activity against T. rubrum (in words)” value in data set [2] (testing concentrations 0.125-64 μg/ml) is recorded as “significant activity”. Also, the “Activity against the fourteen cell lines (in words)” value in [7] is on record as “significant activity”.

Regarding `CN1CCN(C(=O)C2C(C(=O)O)[C@H]3CC[C@@H]2O3)CC1` (stereo partly drawn) [Compound 100, Endothall 4-Methylpiperazine Monoamide], the “Percent of Control, Observed” value is 97.9 +/− 1.0% of Control in data set [8] (Compound 100 1 μM) and 52.5 +/− 2.9% of Control in data set [8] (Compound 100 5 μM). In addition, the activity at 1 µM in data set [8] (Homo sapiens, U373 MG, 168 h, Compound 100 1 uM, U373, 7 days (Table 3), read-out: Percent of Control, Observed) was 78%. Further, the pIC50 in data set [1] was 5.28; in data set [5] it was 4.50. Also, the “Effect on U87 xenograft tumor growth (in words)” value in [9] was “supresses the growth”. The MIC in [2] (24 h), in data set [2] (48 h), in [3] (24 h), in data set [3] (48 h), in data set [4] (24 h) and in data set [4] (48 h) was more than 64 µg/mL each time. Moreover, the MIC in data set [6] (24 Hours) and in [6] (48 Hours) was more than 64 µg/mL each time. Also, the “minimum inhibitory concentration (MIC)” value in data set [2] (24 Hours) is more than 64 µg/mL; in [2] (48 Hours), more than 64 µg/mL; in data set [3] (isolate 07-3006, 24 Hours) it was more than 64 µg/mL; in data set [3] (isolate 07-3006, 48 Hours), more than 64 µg/mL; in data set [3] (isolate 07-3011, 24 Hours) it was more than 64 µg/mL; in [3] (isolate 07-3011, 48 Hours) it was more than 64 µg/mL. Moreover, the “minimum inhibitory concentration (MIC)” value in data set [4] (isolate 06-4126, 24 Hours) was more than 64 µg/mL; in data set [4] (isolate 06-4126, 48 Hours), more than 64 µg/mL; in data set [4] (isolate 07-2039, 24 Hours) it was more than 64 µg/mL; in data set [4] (isolate 07-2039, 48 Hours) it was more than 64 µg/mL. Also, the “Stability at acid pH (in words)” value in data set [10] is given as “stable at acid pH”. Besides, the “Activity against the fourteen cell lines (in words)” value in data set [7] is “significant activity”.

These data come from US10023587B2, “Oxabicycloheptanes and oxabicycloheptenes, their preparation and use” (LIXTE BIOTECHNOLOGY, INC., priority 2007, dated 2018).
